Data taken from patent US12692274B2, “Tetrahydroisoquinoline derivatives for the treatment of red blood disorders and inflammatory diseases” (Sanofi, priority 2020, dated 2026).
“And” between values parts separate entries of the source, which are not always exact repeats. Equal values may be shown once.

Tests used:
[1] = target: HIS-Keap1 full length / Biotin-Nrf2 (16-mer) (Homo sapiens, UniProt Q14145); assay: biochemical
[2] = system: NQO1 activation in BEAS-2B cells; assay: BEAS-2B cellular MTT assay of NQO1 activation, 0% HSA; format: cell-based
Summary of the method: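 For the 0% HSA condition, cells were seeded into collagen plates in HSA-free medium. Culture was BEAS-2B in BEBM plus BEGM SingleQuots lacking GA-1000, held under 70% confluence, at a seeding density reaching 95-100% confluence by 48 h.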

[3] = system: NQO1 activation in BEAS-2B cells; assay: BEAS-2B cellular MTT assay of NQO1 activation, 0.3% HSA; format: cell-based
Method: The growth rate of the BEAS-2B cells changed based on the lot of BEGM SingleQuots in the BEGM media. The cell growth rate was determined for each lot of SingleQuots. Ideally, cells were thawed into media with the new lot of SingleQuots and grown for two passages before testing; however, growing an active culture in the new lot of media for two to three passages before testing was also acceptable. Until the cell growth rate was determined, cells were seeded at different densities (cells/cm^2) in multiple tissue culture flasks in order to avoid the cells becoming more than 70% confluent. Cells should not go above 70% confluent as the cells differentiate when they become confluent. After the cells were grown in the new lot of media as described above, the number of cells per well needed to seed in the collagen plates was determined by seeding different numbers of cells per well and incubating for 48 hours. Cell confluency was checked after 48 hours and a cell number that results in just below to just above confluency was chosen for future plate seeding. Cell confluency in the assay plate was 95-100% confluent after 48 hours.
Cell media consists of BEBM basal media with the BEGM SingleQuots added. SingleQuots vials were thawed in the tissue culture hood, and GA-1000 (Gentamicin-Amphotericin) was not added.
If complete media was to be used immediately, BEBM basal media was warmed to room temperature in the hood, but not as high as 37° C. When the media was made for future use, SingleQuots were added to cold BEBM. One at a time, the SingleQuots components (except GA-1000) were added to the BEBM media. After removal of each component from the vial, the vial was rinsed with 0.5-1 mL of BEBM (depending on the volume the vial could hold) and added to the bottle of BEBM. Once all components were added, the label that comes with the SingleQuots kit was put on the bottle of media and the date was recorded. The bottle of media was mixed by gentle shaking. The media was not filtered. This media was stored at 4° C., with any leftover media disposed of one month after the date the SingleQuots were added.
BEAS-2B Cell Splitting Protocol:
First, Trypsin was warmed to 37° C. in the water bath. The media was then warmed to room temperature by letting it sit in the tissue culture hood, but not as high as 37° C. The media was aspirated from flask(s) and the flask(s) were washed with PBS. From 1 to 1.5 mL of warm trypsin were added to each flask and incubated at 37° C. until cells came off the flask on their own (~8-10 minutes), with no vigorous tapping on the flask to detach the cells.
Media was added to each flask to a total volume of 8-10 mL per flask and transferred to 15 mL conical tube(s). The cells were spun down at 120 g for 5 minutes, level 5 brake. The cells can be spun down between 100 and 150 g. Next the media was aspirated and the cell pellet was resuspended in fresh media by pipetting up and down and flicking the tube side to side. Any clumps of cells that remained were allowed to settle to the bottom of the tube before the top suspension was transferred into another tube, leaving about 1 mL of media in the original tube. The 1 mL of media and cell clumps were mixed with a single channel p1000 pipette, and any remaining clumps were removed before adding the cells in suspension to the other tube. The suspension was mixed with a pipette, an aliquot was removed, and the cells were counted. The amount of cells/cm^2 desired was calculated and the required volume of cells was added to tissue culture flasks. For example, use of SingleQuots with ~6000 cells/cm^2 was appropriate for a three day incubation and ~3000 cells/cm^2 for a five day incubation. Optimal cell density differed depending on lot of SingleQuots. The flasks were incubated at 37° C. in 5% CO2.
Day One: Seeding BEAS-2B Cells in Collagen Plates:
Plate(s) were either seeded with 0.3% or 0% HSA. While the protocol was similar for both conditions any differences are noted herein below. […]

[4] = Homo sapiens, serum free, read-out: BEAS EC50 (nM) serum free
[5] = serum free, read-out: BEAS EC50 (nM) serum free
[6] = Homo sapiens, BEAS+, read-out: BEAS+ EC50
[7] = Homo sapiens, Serum Free W, read-out: BEAS EC50 (nM) Serum Free W
[8] = Serum Free W, read-out: BEAS EC50 (nM) Serum Free W
[9] = BEAS+ W, read-out: BEAS+ W EC50
[10] = Homo sapiens, BEAS+ W, read-out: BEAS+ W EC50

HIS-Keap1 full length / Biotin-Nrf2 (16-mer), sequence (Q14145 whole entry): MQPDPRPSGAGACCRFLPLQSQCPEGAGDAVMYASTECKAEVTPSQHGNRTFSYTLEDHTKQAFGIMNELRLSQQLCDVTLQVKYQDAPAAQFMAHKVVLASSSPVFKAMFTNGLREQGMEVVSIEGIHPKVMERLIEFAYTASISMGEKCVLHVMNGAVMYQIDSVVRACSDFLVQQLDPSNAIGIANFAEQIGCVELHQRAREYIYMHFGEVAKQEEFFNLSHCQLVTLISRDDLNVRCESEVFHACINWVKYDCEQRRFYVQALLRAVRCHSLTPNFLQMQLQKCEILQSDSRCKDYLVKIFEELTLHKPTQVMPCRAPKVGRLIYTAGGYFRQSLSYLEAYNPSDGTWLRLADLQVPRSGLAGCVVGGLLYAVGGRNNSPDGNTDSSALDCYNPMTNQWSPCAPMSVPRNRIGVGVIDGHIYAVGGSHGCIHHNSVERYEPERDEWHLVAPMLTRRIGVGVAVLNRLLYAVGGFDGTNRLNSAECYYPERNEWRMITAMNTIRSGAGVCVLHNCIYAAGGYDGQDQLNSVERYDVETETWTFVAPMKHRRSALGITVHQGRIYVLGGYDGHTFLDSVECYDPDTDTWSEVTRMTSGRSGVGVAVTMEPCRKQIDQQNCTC

SMILES | IC50 [1] | EC50 [2, 4] | EC50 [2, 5] | EC50 ([3]; BEAS+, read-out: BEAS+ EC50) | EC50 [3, 6] | EC50 [2, 7] | EC50 [2, 8] | EC50 [3, 9] | EC50 [3, 10]
Cc1cc2ccc1C(=O)N1CCc3ccc(cc3C1)C(CC(=O)O)c1ccc(nc1C)OCCCCC2 (centres unmarked) [Compound 149] | 9.4 nM and 7.4 nM | 74.3 nM | 67.8 nM | 89.3 nM | 103 nM | – | – | – | –
Cc1c2ccc3c1nnn3CCCCCOc1cc(F)c(c(F)c1)C(=O)N1CCc3ccc(cc3C1)C2CC(=O)O (centres unmarked) [Compound 314] | 4.4 nM and 1.8 nM | 2.6 nM | – | – | 109 nM | – | – | – | –
O=C(O)CC1c2ccc3c(c2)CN(CC3)C(=O)c2ccc(cn2)CCCCCn2nnc3c(Cl)c1ccc32 (centres unmarked) [Compound 220] | 1.4 nM and 1.2 nM | 178 nM | 182 nM | 346 nM | 314 nM | – | – | – | –
C[C@@H](C(=O)O)[C@H]1c2ccc(nc2)OCC/C=C/Cc2ccc(cc2)C(=O)N2CCc3ccc1cc3C2 [Compound 66] | 31.9 nM and 29.5 nM | – | – | – | – | 20.6 nM | 27.6 nM | 55.6 nM | 39.3 nM
Cc1c2ccc3c1nnn3CCCCCOc1ccc(c3ccccc13)C(=O)N1CCc3ccc(cc3C1)C2CC(=O)O (centres unmarked) [Compound 283] | 1.1 nM and 1.7 nM | 450 nM | – | – | 418 nM | – | – | – | –
Cc1c2ccc3c1nnn3CCCOCCOc1ccc(c(F)c1)C(=O)N1CCc3ccc(cc3C1)C2CC(=O)O (centres unmarked) [Compound 383] | 0.9 nM | 179 nM | 162 nM | 187 nM | 196 nM | – | – | – | –
Cc1c2ccc3c1nnn3CCCCCOc1ccc(c(Cl)c1)C(=O)N1CCc3ccc(cc3C1)C2CC(=O)O (centres unmarked) [Compound 302] | 0.8 nM and 0.9 nM | 129 nM | 213 nM | 196 nM | 134 nM | – | – | – | –
Cc1c2ccc3c1nnn3CCCCCc1ccc3c(c1)c(cn3C)C(=O)N1CCc3ccc(cc3C1)C2CC(=O)O (centres unmarked) [Compound 362, 2-(5,33-dimethyl-2-oxo-1,5,15,16,17-pentazaheptacyclo[22.5.3.26,9.118,22.03,7.015,19.027,31]pentatriaconta-3,6,8,16,18(33),19,21,24(32),25,27(31),34-undecaen-23-yl)acetic Acid] | 50 nM and 47.3 nM | 3250 nM | 3760 nM | – | > 10000 nM | – | – | – | –
Cc1cc2cc3c1CCN(C3)C(=O)c1ccc(cc1)CCCCCCn1nnc3c(C)c(cnc31)[C@@H]2CC(=O)O [Compound 92] | 4.6 nM and 3.9 nM | – | – | – | – | 23.6 nM | 24.8 nM | 141 nM | 115 nM
Cc1cc2ccc1C(=O)N1CCc3ccc(cc3C1)[C@@H](CC(=O)O)c1ccc3c(nnn3CCC/C=C/C2)c1C [Compound 392] | 0.5 nM | 10.6 nM | 10.3 nM | 15.5 nM | 13.7 nM | – | – | – | –
Cc1c2cnc3c1nnn3CCCCCc1cc(F)c(c(F)c1)C(=O)N1CCc3ccc(cc3C1)[C@@H]2CC(=O)O [Compound 136] | 1.4 nM and 1.3 nM | 10 nM | 7.3 nM | 24.3 nM | 15 nM | – | – | – | –
Cc1c2cnc3c1nnn3CCCCCCCc1ccc(cc1)C(=O)N1CCc3ccc(cc3C1)[C@@H]2CC(=O)O [Compound 77] | 0.4 nM and 0.8 nM | – | – | – | – | 11.7 nM | 13.7 nM | 45.3 nM | 34.5 nM
O=C(O)CC1c2cnc(nc2)OCCCCc2cc(F)c(c(F)c2)C(=O)N2CCc3ccc1cc3C2 (centres unmarked) [Compound 242] | > 1000 nM | – | – | – | > 10000 nM | – | – | – | –
O=C(O)CC1c2ccc3c(c2)CN(CC3)C(=O)c2cccc(c2)OCCCCCCn2nnc3cc1ccc32 (centres unmarked) [Compound 403] | 146 nM and 192 nM | – | – | – | > 10000 nM | – | – | – | –
